# Experiments:
# Format in all cases: in vivo
# Conditions in all cases: evaluated after 13 days
# [1] = system: Amaranthus retoflexus (AMARE); experiment: Pre-emergence Test, Amaranthus retoflexus (AMARE)
# [2] = system: Echinochloa crus-galli (ECHCG); experiment: Post-emergence Test, Echinochloa crus-galli (ECHCG); design: key to percentage damage caused to the plant, ECHCG (five-point scale): 5=81-100%, 4=61-80%, 3=41-60%, 2=21-40%, 1=0-20% damage
# Outline: (§1)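 Sown pots in a glasshouse (24/16 °C day/night, 14 h light, 65% humidity) were sprayed with compound in acetone/water (50:50) with 0.5% Tween 20, at 1000 g/ha unless otherwise stated. Damage was assessed 13 days after spraying and scored 1–5 (5=81-100%, 1=0-20%).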
# [3] = system: Ipomoea hederacea (IPOHE); experiment: Pre-emergence Test, Ipomoea hederacea (IPOHE)
# [4] = system: Amaranthus palmeri (AMAPA); experiment: Post-emergence Test, Amaranthus palmeri (AMAPA); design: key: 5=81-100%, 4=61-80%, 3=41-60%, 2=21-40%, 1=0-20% damage
# Outline: as §1
# [5] = system: Amaranthus palmeri (AMAPA); experiment: Pre-emergence Test, Amaranthus palmeri (AMAPA)
# [6] = system: Ipomoea hederacea (IPOHE); experiment: Post-emergence Test, Ipomoea hederacea (IPOHE); design: key to percentage damage caused to the plant, IPOHE (five-point scale): 5=81-100%, 4=61-80%, 3=41-60%, 2=21-40%, 1=0-20% damage
# Outline: as §1
# Setaria faberi (SETFA) [7] = experiment: Post-emergence Test, Setaria faberi (SETFA); design: key to percentage damage caused to the plant, SETFA (five-point scale): 5=81-100%, 4=61-80%, 3=41-60%, 2=21-40%, 1=0-20% damage
# Outline: as §1
# Setaria faberi (SETFA) [8] = experiment: Pre-emergence Test, Setaria faberi (SETFA)
# Zea mays (ZEAMX) [9] = experiment: Pre-emergence Test, Zea mays (ZEAMX)
# [10] = system: Amaranthus retoflexus (AMARE); experiment: Post-emergence Test, Amaranthus retoflexus (AMARE); design: key to percentage damage caused to the plant, AMARE (five-point scale): 5=81-100%, 4=61-80%, 3=41-60%, 2=21-40%, 1=0-20% damage
# Outline: as §1
# [11] = system: Echinochloa crus-galli (ECHCG); experiment: Pre-emergence Test, Echinochloa crus-galli (ECHCG)
# Zea mays (ZEAMX) [12] = experiment: Post-emergence Test, Zea mays (ZEAMX); design: key to percentage damage caused to the plant, ZEAMX (five-point scale): 5=81-100%, 4=61-80%, 3=41-60%, 2=21-40%, 1=0-20% damage
# Outline: as §1
SMILES,"Pre-emergence Test AMARE, percentage damage caused to the plant (five-point scale) ([1]; 250 g/Ha (*))","percentage damage caused to the plant, ECHCG (five-point scale) ([2]; 250 g/Ha)","Pre-emergence Test IPOHE, percentage damage caused to the plant (five-point scale) ([3]; 250 g/Ha (*))","percentage damage caused to the plant, AMAPA (five-point scale) ([4]; 250 g/Ha)","Pre-emergence Test AMAPA, percentage damage caused to the plant (five-point scale) ([5]; 250 g/Ha (*))","percentage damage caused to the plant, SETFA (five-point scale) (Setaria faberi (SETFA) [7]; 250 g/Ha)","percentage damage caused to the plant, AMARE (five-point scale) ([10]; 250 g/Ha)","percentage damage caused to the plant, ZEAMX (five-point scale) (Zea mays (ZEAMX) [12]; 250 g/Ha)","Pre-emergence Test AMARE, percentage damage caused to the plant (five-point scale) ([1]; 1000 g/ha)","percentage damage caused to the plant, ECHCG (five-point scale) ([2]; 1000 g/ha)","Pre-emergence Test IPOHE, percentage damage caused to the plant (five-point scale) ([3]; 1000 g/ha)","percentage damage caused to the plant, AMAPA (five-point scale) ([4]; 1000 g/ha)","Pre-emergence Test AMAPA, percentage damage caused to the plant (five-point scale) ([5]; 1000 g/ha)","percentage damage caused to the plant, IPOHE (five-point scale) ([6]; 1000 g/ha)","percentage damage caused to the plant, SETFA (five-point scale) (Setaria faberi (SETFA) [7]; 1000 g/ha)","Pre-emergence Test SETFA, percentage damage caused to the plant (five-point scale) (Setaria faberi (SETFA) [8]; 1000 g/ha)","Pre-emergence Test ZEAMX, percentage damage caused to the plant (five-point scale) (Zea mays (ZEAMX) [9]; 1000 g/ha)","percentage damage caused to the plant, AMARE (five-point scale) ([10]; 1000 g/ha)","Pre-emergence Test ECHCG, percentage damage caused to the plant (five-point scale) ([11]; 1000 g/ha)","percentage damage caused to the plant, ZEAMX (five-point scale) (Zea mays (ZEAMX) [12]; 1000 g/ha)",other results
"CCn1c(Cn2cnc3ncccc32)cc(=O)c(C(=O)O)c1-c1ccc(Cl)c(Cl)c1 [Compound 125, 2-(3,4-dichlorophenyl)-1-ethyl-6-(imidazo[4,5-b]pyridin-1-ylmethyl)-4-oxo-pyridine-3-carboxylic acid]",0,1 (1=0-20%),0,0,1 (1=0-20%),1 (1=0-20%),1 (1=0-20%),1 (1=0-20%),,,,,,,,,,,,,"percentage damage caused to the plant, IPOHE (five-point scale) ([6]; 250 g/Ha): 1 (1=0-20%); Pre-emergence Test SETFA, percentage damage caused to the plant (five-point scale) (Setaria faberi (SETFA) [8]; 250 g/Ha (*)): 1 (1=0-20%); Pre-emergence Test ZEAMX, percentage damage caused to the plant (five-point scale) (Zea mays (ZEAMX) [9]; 250 g/Ha (*)): 0; Pre-emergence Test ECHCG, percentage damage caused to the plant (five-point scale) ([11]; 250 g/Ha (*)): 0"
"C=CCOc1ccn(Cc2cc(=O)c(C(=O)O)c(-c3ccc(Cl)c(Cl)c3)n2CC)n1 [Compound 163, 6-[(3-allyloxypyrazol-1-yl)methyl]-2-(3,4-dichlorophenyl)-1-ethyl-4-oxo-pyridine-3-carboxylic acid]",0,,1 (1=0-20%),,0,,,,0,3 (3=41-60%),3 (3=41-60%),1 (1=0-20%),0,2 (2=21-40%),4 (4=61-80%),3 (3=41-60%),2 (2=21-40%),1 (1=0-20%),4 (4=61-80%),1 (1=0-20%),"Pre-emergence Test SETFA, percentage damage caused to the plant (five-point scale) (Setaria faberi (SETFA) [8]; 250 g/Ha (*)): 0; Pre-emergence Test ZEAMX, percentage damage caused to the plant (five-point scale) (Zea mays (ZEAMX) [9]; 250 g/Ha (*)): 0; Pre-emergence Test ECHCG, percentage damage caused to the plant (five-point scale) ([11]; 250 g/Ha (*)): 1 (1=0-20%)"
"CCn1c(Cn2ccc(C(F)(F)F)n2)cc(=O)c(C(=O)O)c1-c1cccc(Cl)c1 [Compound 25, 2-(3-chlorophenyl)-1-ethyl-4-oxo-6-[[3-(trifluoromethyl)pyrazol-1-yl]methyl]pyridine-3-carboxylic acid]",,3 (3=41-60%),,2 (2=21-40%),,4 (4=61-80%),2 (2=21-40%),0,2 (2=21-40%),4 (4=61-80%),1 (1=0-20%),2 (2=21-40%),2 (2=21-40%),4 (4=61-80%),4 (4=61-80%),5 (5=81-100%),1 (1=0-20%),2 (2=21-40%),5 (5=81-100%),3 (3=41-60%),"percentage damage caused to the plant, IPOHE (five-point scale) ([6]; 250 g/Ha): 4 (4=61-80%)"
"CCn1c(Cn2cc(C(=O)OC)cn2)cc(=O)c(C(=O)O)c1-c1ccc(Cl)c(Cl)c1 [Compound 40, 2-(3,4-dichlorophenyl)-1-ethyl-6-[(4-methoxycarbonylpyrazol-1-yl)methyl]-4-oxo-pyridine-3-carboxylic acid]",,1 (1=0-20%),,0,,0,1 (1=0-20%),0,1 (1=0-20%),0,2 (2=21-40%),1 (1=0-20%),3 (3=41-60%),2 (2=21-40%),1 (1=0-20%),1 (1=0-20%),0,0,0,2 (2=21-40%),"percentage damage caused to the plant, IPOHE (five-point scale) ([6]; 250 g/Ha): 0"
"CCOC(=O)c1c(-c2ccc(Cl)c(Cl)c2)n(CC)c(Cn2cc(F)cn2)cc1=O [Compound 8, ethyl 2-(3,4-dichlorophenyl)-1-ethyl-6-[(4-fluoropyrazol-1-yl)methyl]-4-oxo-pyridine-3-carboxylate]",,,,,,,,,0,1 (1=0-20%),1 (1=0-20%),1 (1=0-20%),0,1 (1=0-20%),4 (4=61-80%),1 (1=0-20%),0,1 (1=0-20%),3 (3=41-60%),1 (1=0-20%),
"CCn1c(Cn2cc(Cl)c(C)n2)cc(=O)c(C(=O)O)c1-c1ccc(Cl)c(Cl)c1 [Compound 89, 6-[(4-chloro-3-methyl-pyrazol-1-yl)methyl]-2-(3,4-dichlorophenyl)-1-ethyl-4-oxo-pyridine-3-carboxylic acid]",0,4 (4=61-80%),3 (3=41-60%),1 (1=0-20%),0,2 (2=21-40%),1 (1=0-20%),0,2 (2=21-40%),4 (4=61-80%),4 (4=61-80%),3 (3=41-60%),3 (3=41-60%),3 (3=41-60%),4 (4=61-80%),4 (4=61-80%),1 (1=0-20%),1 (1=0-20%),5 (5=81-100%),3 (3=41-60%),"Pre-emergence Test SETFA, percentage damage caused to the plant (five-point scale) (Setaria faberi (SETFA) [8]; 250 g/Ha (*)): 3 (3=41-60%); Pre-emergence Test ZEAMX, percentage damage caused to the plant (five-point scale) (Zea mays (ZEAMX) [9]; 250 g/Ha (*)): 0; Pre-emergence Test ECHCG, percentage damage caused to the plant (five-point scale) ([11]; 250 g/Ha (*)): 4 (4=61-80%)"

# Reference: US20250098679A1, “HERBICIDAL PYRIDONE DERIVATIVES” (SYNGENTA CROP PROTECTION AG, priority 2021, published 2025)
